According to US20030044413A1, “Methods of limiting apoptosis of cells” (Regents of the University of Minnesota, priority 1998, published 2003):
“And” between values parts separate entries of the source, which are not always exact repeats. Equal entries are not always repeated. “Also recorded” adds a separate entry of the source.

Key:
[1] = tested on: astrocytes; assay: Unconjugated bilirubin-induced apoptosis in astrocytes; type: cell-based, rat; details: for apoptosis, increase over control values: 4 hours
[2] = tested on: rat primary hepatocytes; assay: FACS analysis of ΔΨm and ROS, rat primary hepatocytes; type: cell-based; details: 1% ETOH, 4 h, hepatocytes
Method: A ΔΨm and ROS measurement. ΔΨm and ROS production were measured by FACScan (Becton Dickinson) analysis. Freshly isolated rat hepatocytes were cultured for 3 h as described above and then incubated with William's E medium supplemented with either 100 μM DCA, 100 μM UDCA, equal molar amounts of both, or no bile acid (control), for 6 h. Rat hepatocytes were also cultured with either 1% ethanol, 100 μM UDCA, ethanol+UDCA, or no addition (control) for 4 h. HuH-7 cells, Hep G2 cells, and human osteogenic sarcoma Saos-2 cells were incubated with TGF-β1, anti-Fas antibody or okadaic acid, respectively, for 48 h under the same conditions as outlined above. For combination studies, cells were pretreated with UDCA or hyodeoxycholic acid for 60 min prior to addition of DCA, ethanol, TGF-β1, anti-Fas antibody or okadaic acid. Aliquots of 1.0×10^6 cells were incubated for 15 min at 37° C. with 50 nM 3,3′-dihexyloxacarbocyanine iodide [DiOC6(3)], 2 μM dihydroethidium (HE), or 5 μM 2′,7′-dichlorofluorescin diacetate (H2DCFDA; Molecular Probes, Inc. Eugene, Oreg.) and analyzed by cytofluorometry (Cathcart et al., Anal. Biochem., 134, 111-116 (1983); Zamzami et al., J. Exp. Med., 181, 1661-1672 (1 995); Carter et al., J. Leukocyte Biol., 55, 253-258 (1994)).
Rat primary hepatocytes were incubated with 100 μM DCA and 1% ETOH for 6 h and 4 h, respectively; HuH-7 cells with 1 nM TGF-β1 for 48 h; Hep G2 cells with 0.5 μg/ml anti-Fas antibody (CH-11) for 48 h, and Saos-2 cells with 50 nM okadaic acid (OA) for 48 h. In each combination group, cells were pretreated with 100 μM UDCA alone for 60 min prior to addition of the inducer. Aliquots of 1.0×10^6 cells were incubated for 15 min at 37° C. with 5 μM 2′,7′-dichlorofluorescin diacetate (H2DCFDA) and analyzed by cytofluorometry.

[3] = tested on: isolated rat liver mitochondria; assay: MPT spectrophotometric assay (mitochondrial swelling); details: for effect on DCA-induced MPT / mitochondrial swelling: preincubation (500 μM bile acid or cyclosporine A) before DCA
Method: Isolation of mitochondria and MPT assays. Low calcium liver mitochondria were isolated from male 200-250 g Sprague-Dawley rats by density gradient centrifugation as previously published (Botla et al., J. Pharmacol. Exp. Ther., 272, 930-938 (1995); Walajtys-Rhode et al., J. Biol. Chem., 267, 370-379 (1992); and Sokol et al., Gastroenterology, 99, 1061-1071 (1990)). The mitochondrial fraction was resuspended in 30 ml of wash buffer containing 0.1 M KCl, 5 mM 3-(N-morpholino)-propane sulfonic acid (MOPS), and 1 mM EGTA, at pH 7.4 and centrifuged at 7,000×g for 10 min at 4° C. A final wash was carried out in chelex-100-treated buffer (Bio-Rad Laboratories, Hercules, Calif.) containing no EGTA. The resulting pellet was suspended in 4 ml of chelex--100-treated buffer containing 125 mM sucrose, 5 mM HEPES, 50 mM KCl and 2 mM KH2PO4. The usual yield of mitochondria was approximately 25 mg of protein per gram of liver tissue. Mitochondrial purity was established as previously described (Botla et al., J. Pharmacol. Exp. Ther., 272, 930-938 (1995)). Protein concentrations were determined using the Bio-Rad protein assay kit as specified by the manufacturer.
MPT was measured spectrophotometrically as described previously (Botla et al., J. Pharmacol. Exp. Ther., 272, 930-938 (1995); Pastorino et al., J. Biol. Chem., 268, 13791-13798 (1993)), during 10 min incubations at 25° C. using mitochondria (1 mg of protein/ml) suspended in 3 ml of a chelex-100-treated buffer containing 0.1 M NaCl, 10 mM MOPS, pH 7.4. Swelling was monitored at 540 nm in a Beckman DU 64 spectrophotometer. Basal values of mitochondria absorbance were measured for 5 min, and the optical density was monitored another 5 min after addition of 200 μM DCA or 80 μM phenylarsine oxide (PhAsO; Sigma Chemical Co.). For coincubation studies, mitochondria were preincubated with 500 μM UDCA or hyodeoxycholic acid for 5 min at 25° C. prior to the assay.
Spectrophotometric and Fluorimetric Assays of MPT. The MPT was assessed using a spectrophotometric assay measuring high amplitude rapid changes in mitochondrial volume, and a fluorimetric assay quantitating the release of calcein from calcein-loaded mitochondria. The MPT was measured spectrophotometrically as previously described (Pastorino, J. Biol. Chem., 268, 13791-13798 (1993); Botla et al., J. Pharmacol. Exp. Ther., 272, 930-938 (1995)). Briefly, mitochondria (3 mg protein) were incubated in 3 ml of chelex-100-treated respiration buffer (0.1 M NaCl, 10 mM MOPS, pH 7.4) for 10 min at 25° C. and monitored at 540 nm in a Beckman DU 64 spectrophotometer. Basal values of mitochondrial absorbance were measured for 5 min, and the optical density was monitored for an additional 5 min after addition of increasing concentrations of DCA (50-200 μM) or 80 μM phenylarsine oxide (PhAsO; Sigma Chemical Co., St. Louis, Mo.). For the coincubation studies, mitochondria were preincubated with UDCA (100-500 μM), or 500 μM hyodeoxycholic acid (HDCA; Sigma Chemical Co.) for 5 min at 25° C. prior to initiation of the assay.
Measurement of MPT and determination of cytochrome c content in supernatants and mitochondrial pellets after MPT. The MPT was assessed using a spectrophotometric assay measuring high amplitude rapid changes in mitochondria volume. Mitochondria (1 mg protein) were incubated in 1 ml of chelex-100-treated respiration buffer (0.1 M NaCl, 10 mM MOPS, pH 7.4) for 10 min at 25° C. and swelling was monitored at 540 nm in a Beckman DU 64 spectrophotometer. Malate and glutamate (1 mM) were added to initiate respiration, and 3 min later rotenone (5 μM), an inhibitor of complex I of the respiratory chain, was also added to the supension. Basal values of mitochondria absorbance were measured for 5 min, and the optical density was monitored for an additional 5 min after addition 200 μM DCA or 80 μM phenylarsine oxide (PhAsO; Sigma Chemical Co.). […]

[4] = tested on: primary rat hepatocytes; assay: Ethanol-induced apoptosis, Hoechst staining, primary rat hepatocytes; type: cell-based; details: 0.5% ethanol
Method: (§1) Incubation of cells with ethanol, TGF-β1, anti-Fas antibody or okadaic acid. Freshly isolated rat hepatocytes were cultured for 3 h as described above and then incubated with William's E medium supplemented with either 0.5% ethanol, 50 μM UDCA, ethanol plus UDCA, or no addition (control) for 2 h and 4 h. HuH-7 cells were incubated with Dulbecco's medium supplemented with either 1 nM TGF-β1 (R & D Systems, Minneapolis, Minn.), 100 μM UDCA, TGF-β1+UDCA, or no addition (control) for 24 h, 48 h, and 72 h. Hep G2 cells were incubated with Dulbecco's medium supplemented with either 0.5 μg/ml of anti-Fas antibody CH-11 (Upstate Biotechnology, Inc., Lake Placid, N.Y.), 100 μM UDCA, CH-11+UDCA, or no addition for 48 h. Both HuH-7 cells and human osteogenic sarcoma Saos-2 cells were cultured in Dulbecco's medium supplemented with either 50 nM okadaic acid (Boehringer Mannheim Biochemicals, Inc, Indianapolis, Ind.), 100 μM UDCA, okadaic acid+UDCA, or no addition for 48 h. In all the combination groups, cells were pretreated with UDCA alone for 60 min prior to addition of ethanol, TGF-β1, anti-Fas antibody or okadaic acid.
(§2) Morphological evaluation of apoptosis. Morphology was performed as described previously (Oberhammer et al., Proc. Natl. Acad. Sci. USA 89, 5408-5412 (1992)). Briefly, after fixation (with 4% formaldehyde in PBS, pH 7.4, for 10 min at room temperature), the cells were incubated with Hoechst dye 33258 (Sigma Chemical Co.) at 5 μg/ml in PBS for 5 min, washed with PBS and mounted with PBS:glycerol (3:1, v/v). Fluorescence was visualized with a Zeiss standard fluorescence microscope (Carl Zeiss, Inc., Thornwood, N.Y.). Photographs were taken with Kodak Ektar-1000 film (Eastman Kodak Co.). Stained nuclei were scored by blind analysis and categorized according to the condensation and staining characteristics of chromatin. Normal nuclei were identified as noncondensed chromatin dispersed over the entire nucleus. Apoptotic nuclei were identified by condensed chromatin, contiguous to the nuclear membrane, as well as nuclear fragmentation of condensed chromatin. Three fields per dish of approximately 500 nuclei were counted; mean values are expressed as the percent of apoptotic nuclei.

[5] = tested on: HuH-7 cells; assay: TGF-β1-induced apoptosis, Hoechst staining, HuH-7 cells; type: cell-based, human; details: 1 nM TGF-β1, 100 μM bile acid, 72 h
Method: as §1
HuH-7 cells were treated with 1 nM TGF-β1, 100 μM of either hyodeoxycholic acid, taurocholic acid, tauroursodeoxycholic acid (Sigma Chemical Co.) or glycoursodeoxycholic acid (Steraloids Inc., Wilton, N.H.), or a combination of TGF-β1 plus the individual bile acids for 72 h. HeLa and Cos-7 cells were incubated with 50 nM okadaic acid, 100 μM of either tauroursodeoxycholic acid or glycoursodeoxycholic acid, or a combination of okadaic acid plus the individual bile acids for 24 h. In the combination groups, cells were pretreated with the bile acid alone for 60 min prior to incuation with TGF-β1 or okadaic acid. In all studies, the medium was gently removed at the indicated times and scored for nonviable cells. The attached cells were fixed for morphologic evaluation of apoptosis.
as §2, with “Morphology was performed as described previously (Oberhammer et al., Proc. Natl. Acad. Sci. USA 89, 5408-5412 (1992)). Briefly, after fixation (with 4% formaldehyde in PBS, pH 7.4, for 10 min at room temperature), the cells were incubated with Hoechst dye 33258 (Sigma Chemical Co.) at 5 μg/ml in PBS for 5 min, washed with PBS and mounted with PBS:glycerol (3:1, v/v).” left out

[6] = tested on: cytochrome c; assay: Cytochrome c release from isolated mitochondria after MPT; parameters: species or system rat; details: added to isolated mitochondria before DCA
Method: Mitochondria isolation. […] In short, animals were sacrificed by exsanguination under ether anesthesia and the livers removed and rinsed in normal saline. Approximately 10 g of minced liver was homogenized at a speed of 800 rpm using 6 complete up and down strokes with a speed controlled mechanical skill drill and a teflon pestle (Tri-R Model K41, Tri-R Instruments, Rockville Center, N.Y.) in an ice-cold solution of 70 mM sucrose, 220 mM mannitol, 1 mM EGTA and 10 mM HEPES, pH 7.4 as a 10% (wt/vol) homogenate. The homogenate was centrifuged at 600×g for 10 min at 4° C. in an SS-34 rotor in a Sorvall RC5C centrifuge (Sorvall Instruments, Newtown, Conn.), and the postnuclear supernatant was centrifuged at 7,000×g for 10 min at 4° C. […] The pellet was resuspended in 2 mL of homogenate buffer, and 1 mL of the resuspended pellet was carefully layered onto a 35-mL self-generating gradient containing 0.25 M sucrose, 1 mM EGTA and percoll (Pharmacia Fine Chemicals, Piscataway, N.J.) (75:25, vol/vol). The mitochondria were purified by centrifugation at 43,000×g for 30 min at 4° C. using a Beckman Ti60 rotor and a Beckman ultracentrifuge model L8-55 (Beckman Instruments, Inc., Schaumburg, Ill.). The clear supernatant solution removed and the lower turbid layer was resuspended in 30 mL of wash buffer containing 0.1 M KCl, 5 mM 3-(N-morpholino)-propane sulfonic acid (MOPS), and 1 mM EGTA, at pH 7.4 and centrifuged at 7,000×g for 10 min at 4° C. The resulting mitochondria pellet was washed in wash buffer two times. A final wash was carried out in chelex-100-treated buffer (Bio-Rad Laboratories, Richmond, Va.; 200-400 mesh, potassium form) without EGTA. The pellet was suspended in 4 mL of chelex-100-treated resuspension buffer containing 125 mM sucrose, 50 mM KCl, 5 mM HEPES, and 2 mM KH2PO4. The usual yield of mitochondria was approximately 25 mg of protein per gram of liver tissue. Mitochondria were used for experiments within 3 h of isolation. Aliquots were removed for examining the purity of the mitochondria preparation.
Measurement of MPT and determination of cytochrome c content in supernatants and mitochondrial pellets after MPT. The MPT was assessed using a spectrophotometric assay measuring high amplitude rapid changes in mitochondria volume. Mitochondria (1 mg protein) were incubated in 1 ml of chelex-100-treated respiration buffer (0.1 M NaCl, 10 mM MOPS, pH 7.4) for 10 min at 25° C. and swelling was monitored at 540 nm in a Beckman DU 64 spectrophotometer. […] Basal values of mitochondria absorbance were measured for 5 min, and the optical density was monitored for an additional 5 min after addition 200 μM DCA or 80 μM phenylarsine oxide (PhAsO; Sigma Chemical Co.). […]

[7] = tested on: stroke injury; assay: Stroke injury in a rat model; type: in vivo; details: preliminary results

C=CC1=C(C)/C(=C/c2[nH]c(Cc3[nH]c(/C=C4\NC(=O)C(C)=C4C=C)c(C)c3CCC(=O)O)c(CCC(=O)O)c2C)NC1=O [UCB, unconjugated bilirubin]
apoptosis, increase over control values ([1]; 17 μM UCB): about 6 fold | apoptosis, increase over control values ([1]; 85.5 μM UCB): about 11 fold | percentage of apoptotic cells ([1]; 85.5 μM UCB, 22 hours): about 48% | cell viability ([1]; UCB treatment): concentration and time dependent decrease in cell viability

CCO [ethanol]
Peroxides Production (%) Inducer [2]: 17.9 ± 5.4% | mitochondrial swelling with the substance alone ([3]; substance alone added to isolated mitochondria): did not induce mitochondria swelling | increase in apoptosis over control values ([4]; 2 h): 10 fold | increase in apoptosis ([4]; time not stated (summary)): 12 fold

C[C@H](CCC(=O)NCC(=O)O)[C@H]1CC[C@H]2[C@@H]3[C@@H](O)C[C@@H]4C[C@H](O)CC[C@]4(C)[C@H]3CC[C@]12C [glycoursodeoxycholic acid]
effect on DCA-induced MPT / mitochondrial swelling [3]: Inhibition of deoxycholic acid-induced MPT | decrease of TGF-β1 apoptosis [5]: 37.5±5.1% | effect on deoxycholic acid-induced cytochrome c release [6]: Inhibition of deoxycholic acid-induced MPT and cytochrome c release were also observed

C[C@H](CCC(=O)NCCS(=O)(=O)O)[C@H]1CC[C@H]2[C@@H]3[C@H](O)C[C@@H]4C[C@H](O)CC[C@]4(C)[C@H]3C[C@H](O)[C@]12C [taurocholic acid]
inhibition of TGF-β1-induced apoptosis [5]: did not; also recorded: neither hyodeoxycholic acid nor taurocholic acid showed inhibition

C[C@H](CCC(=O)NCCS(=O)(=O)O)[C@H]1CC[C@H]2[C@@H]3[C@@H](O)C[C@@H]4C[C@H](O)CC[C@]4(C)[C@H]3CC[C@]12C [tauroursodeoxycholic acid]
effect on DCA-induced MPT / mitochondrial swelling [3]: Inhibition of deoxycholic acid-induced MPT | decrease of TGF-β1 apoptosis [5]: 45.8±7.9% | effect on deoxycholic acid-induced cytochrome c release [6]: Inhibition of deoxycholic acid-induced MPT and cytochrome c release were also observed | mitochondria viability following a stroke injury [7]: improvement in mitochondria viability | decrease of the area of stroke damage ([7]; pretreatment, compared to control animals): up to 50%

cyclosporine A
inhibition of DCA-induced MPT (mitochondrial swelling) ([3]; 200 μM DCA, pretreatment 500 μM UDCA or 5 μM cyclosporine A): > 45% and 45.8±5.4% | effect on DCA-induced MPT / mitochondrial swelling [3]: reduced deoxycholic acid-induced mitochondria swelling
